Measured values published in US10364245B2 (CHIESI FARMACEUTICI S.p.A., priority 2017, dated 2019).
Where a name gives a salt, the structure may show the parent alone.

Target: T1, p38 alpha (Homo sapiens, UniProt Q16539)
T1 construct: purchased Invitrogen PV3304
Test: P38 alpha enzyme inhibition assay (Alphascreen kinase activity assay)
Assay type: biochemical
Settings: 100 pM p38 alpha, 2 hours preincubation at 25° C., 250 μM ATP, ATF-2 fusion protein; read-out: p38α inhibition
Experimental: P38 Alpha Enzyme Inhibition Assay
The inhibitory activity of compounds was determined using an Alphascreen® (Perkin Elmer) based kinase activity assay. Kinase reactions consisted of 25 mM HEPES pH 7.5, 10 mM MgCl2, 100 μM Na3VO4, 2 mM DTT, 0.05 mg/ml Tween 20, 100 pM p38 alpha (Invitrogen, PV3304), 1% DMSO and 0.3 μg/ml ATF-2 fusion protein (New England Biolabs, 9224). Compounds were incubated under these conditions for 2 hours, at 25° C., prior to the initiation of the kinase activity by the addition of the 250 μM ATP. Reaction volumes were 20 μL. After 1 hr at 25° C. reactions were stopped by the adding 10 μL of 25 mM HEPES pH 7.5 containing 62.5 mM EDTA, 0.05% Triton X-100, 10% BSA and 0.83 ng/uL anti-phospho-ATF2 antibody (Abcam, ab28812). Detection was performed by measuring luminescence following the addition of Alphascreen Donor beads (Perkin Elmer 6765300) and Protein A Alphascreen Acceptor beads (Perkin Elmer 6760137), both at a final concentration of 20 ug/ml. IC50 values were determined from concentration-response curves.

T1 sequence (Q16539 whole entry): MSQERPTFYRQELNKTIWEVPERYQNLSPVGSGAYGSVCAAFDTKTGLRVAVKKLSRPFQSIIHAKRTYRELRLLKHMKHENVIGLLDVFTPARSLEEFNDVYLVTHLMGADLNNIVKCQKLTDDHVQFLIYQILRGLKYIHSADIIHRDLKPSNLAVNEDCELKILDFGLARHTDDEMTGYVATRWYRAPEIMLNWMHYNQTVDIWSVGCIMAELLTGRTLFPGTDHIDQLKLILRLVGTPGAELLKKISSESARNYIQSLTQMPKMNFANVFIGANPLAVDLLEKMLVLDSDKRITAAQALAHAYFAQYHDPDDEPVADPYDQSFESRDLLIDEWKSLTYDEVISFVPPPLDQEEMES

| SMILES | IC50 [nM] |
| --- | --- |
| COCC(C)(C)c1nnc2ccc(O[C@@H]3CC[C@H](NC(=O)Nc4cc(C(C)(C)C)nc(C(=O)NCC5(N(C)C)CCOCC5)n4)c4ccccc43)cn12 [Example 150, 4-(tert-butyl)-N-((4-(dimethylamino)-tetrahydro-2H-pyran-4-yl)methyl)-6-(3-((1S,4R)-4-((3-(1-methoxy-2-methylpropan-2-yl)-[1,2,4]triazolo[4,3-a]pyridin-6-yl)oxy)-1,2,3,4-tetrahydronaphthalen-1-yl)ureido)pyrimidine-2-carboxamide] | 1 to 10 |
| COCC(C)(C)c1nnc2ccc(O[C@@H]3CC[C@H](NC(=O)Nc4cc(C(C)(C)C)nc(C(=O)NCC5(N(C)C)CCCCC5)n4)c4ccccc43)cn12 [Example 153, 4-(tert-butyl)-N-((1-(dimethylamino)cyclohexyl)methyl)-6-(3-((1S,4R)-4-((3-(1-methoxy-2-methylpropan-2-yl)-[1,2,4]triazolo[4,3-a]pyridin-6-yl)oxy)-1,2,3,4-tetrahydronaphthalen-1-yl)ureido)pyrimidine-2-carboxamide] | 1 to 10 |
| CCN(C)C(C)(C)CNC(=O)c1nc(NC(=O)N[C@H]2CC[C@@H](Oc3ccc4nnc(C(C)(C)OC)n4c3)c3ccccc32)cc(C(C)(C)C)n1 [Example 156, 4-(tert-butyl)-N-(2-(ethyl(methyl)amino)-2-methylpropyl)-6-(3-((1S,4R)-4-((3-(2-methoxypropan-2-yl)-[1,2,4]triazolo[4,3-a]pyridin-6-yl)oxy)-1,2,3,4-tetrahydronaphthalen-1-yl)ureido)pyrimidine-2-carboxamide] | 1 to 10 |
| COC(C)(C)c1nnc2ccc(O[C@@H]3CC[C@H](NC(=O)Nc4cc(C(C)(C)C)nc(C(=O)NCC(C)(C)N5CCN(C)CC5)n4)c4ccccc43)cn12 [Example 157, 4-(tert-butyl)-6-(3-((1S,4R)-4-((3-(2-methoxypropan-2-yl)-[1,2,4]triazolo[4,3-a]pyridin-6-yl)oxy)-1,2,3,4-tetrahydronaphthalen-1-yl)ureido)-N-(2-methyl-2-(4-methylpiperazin-1-yl)propyl)pyrimidine-2-carboxamide] | 1 to 10 |
| CN(C)C1(CNC(=O)c2nc(NC(=O)N[C@H]3CC[C@@H](Oc4ccc5nnc(C(C)(C)C)n5c4)c4ccccc43)cc(C(C)(C)C)n2)CCOCC1 [Example 160, 4-(tert-butyl)-6-(3-((1S,4R)-4-((3-(tert-butyl)-[1,2,4]triazolo[4,3-a]pyridm-6-yl)oxy)-1,2,3,4-tetrahydronaphthalen-1-yl)ureido)-N-((4-(dimethylamino)-tetrahydro-2H-pyran-4-yl)methyl)pyrimidine-2-carboxamide] | 1 to 10 |
| CN(C)C1(CNC(=O)c2nc(NC(=O)N[C@H]3CC[C@@H](Oc4ccc5nnc(C(C)(C)C)n5c4)c4ccccc43)cc(C(C)(C)C)n2)CCCCC1 [Example 161, 4-(tert-butyl)-6-(3-((1S,4R)-4-((3-(tert-butyl)-[1,2,4]-triazolo[4,3-a]pyridin-6-yl)oxy)-1,2,3,4-tetrahydronaphthalen-1-yl)ureido)-N-((1-(dimethylamino)-cyclohexyl)methyl)pyrimidine-2-carboxamide] | 1 to 10 |
| CN(C)C1(CNC(=O)c2nc(NC(=O)N[C@H]3CC[C@@H](Oc4ccc5nnc(C(C)(C)C)n5c4)c4ccccc43)cc(C(C)(C)C)n2)CCC1 [Example 162, 4-(tert-butyl)-6-(3-((1S,4R)-4-((3-(tert-butyl)-[1,2,4]triazolo[4,3-a]pyridin-6-yl)oxy)-1,2,3,4-tetrahydronaphthalen-1-yl)ureido)-N-((1-(dimethylamino)-cyclobutyl)methyl)pyrimidine-2-carboxamide] | 1 to 10 |
| CN(C)C1(CNC(=O)c2nc(NC(=O)N[C@H]3CC[C@@H](Oc4ccc5nnc(C(C)(C)C)n5c4)c4ccccc43)cc(C(C)(C)C)n2)CCCC1 [Example 163, 4-(tert-butyl)-6-(3-((1S,4R)-4-((3-(tert-butyl)-[1,2,4]-triazolo[4,3-a]pyridin-6-yl)oxy)-1,2,3,4-tetrahydronaphthalen-1-yl)ureido)-N-((1-(dimethylamino)-cyclopentyl)methyl)-pyrimidine-2-carboxamide] | 1 to 10 |
| CN(CCNC(=O)c1nc(NC(=O)N[C@H]2CC[C@@H](Oc3ccc4nnc(C(C)(C)C)n4c3)c3ccccc32)cc(C(C)(C)C)n1)C1CC1 [Example 164, 4-(tert-butyl)-6-(3-((1S,4R)-4-((3-(tert-butyl)-[1,2,4]triazolo[4,3-a]pyridin-6-yl)oxy)-1,2,3,4-tetrahydronaphthalen-1-yl)ureido)-N-(2-(cyclopropyl(methyl)-amino)ethyl)pyrimidine-2-carboxamide] | 1 to 10 |
| CN(C)[C@H]1CCCC[C@@H]1NC(=O)c1nc(NC(=O)N[C@H]2CC[C@@H](Oc3ccc4nnc(C(C)(C)C)n4c3)c3ccccc32)cc(C(C)(C)C)n1 [Example 165, 4-(tert-butyl)-6-(3-((1S,4R)-4-((3-(tert-butyl)-[1,2,4]triazolo[4,3-a]pyridin-6-yl)oxy)-1,2,3,4-tetrahydronaphthalen-1-yl)ureido)-N-((1S,2S)-2-(dimethylamino)-cyclohexyl)pyrimidine-2-carboxamide] | 1 to 10 |
| COC1CN(CCNC(=O)c2nc(NC(=O)N[C@H]3CC[C@@H](Oc4ccc5nnc(C(C)(C)OC)n5c4)c4ccccc43)cc(C(C)(C)C)n2)C1 [Example 167, 4-(tert-butyl)-N-(2-(3-methoxyazetidin-1-yl)ethyl)-6-(3-((1S,4R)-4-((3-(2-methoxypropan-2-yl)-[1,2,4]triazolo[4,3-a]pyridin-6-yl)oxy)-1,2,3,4-tetrahydronaphthalen-1-yl)ureido)pyrimidine-2-carboxamide] | 1 to 10 |
| CCC(CC)(CNC(=O)c1nc(NC(=O)N[C@H]2CC[C@@H](Oc3ccc4nnc(C(C)(C)C)n4c3)c3ccccc32)cc(C(C)(C)C)n1)N(C)C [Example 168, 4-(tert-butyl)-6-(3-((1S,4R)-4-((3-(tert-butyl)-[1,2,4]triazolo[4,3-a]pyridin-6-yl)oxy)-1,2,3,4-tetrahydronaphthalen-1-yl)ureido)-N-(2-(dimethylamino)-2-ethylbutyl)pyrimidine-2-carboxamide] | 1 to 10 |
| COC1CN(C(C)(C)CNC(=O)c2nc(NC(=O)N[C@H]3CC[C@@H](Oc4ccc5nnc(C(C)(C)C)n5c4)c4ccccc43)cc(C(C)(C)C)n2)C1 [Example 170, 4-(tert-butyl)-6-(3-((1S,4R)-4-((3-(tert-butyl)-[1,2,4]triazolo[4,3-a]pyridin-6-yl)oxy)-1,2,3,4-tetrahydronaphthalen-1-yl)ureido)-N-(2-(3-methoxyazetidin-1-yl)-2-methylpropyl)pyrimidine-2-carboxamide] | 1 to 10 |
| COC1CN(C(C)(C)CNC(=O)c2nc(NC(=O)N[C@H]3CC[C@@H](Oc4ccc5nnc(C(C)(C)OC)n5c4)c4ccccc43)cc(C(C)(C)C)n2)C1 [Example 172, 4-(tert-butyl)-N-(2-(3-methoxyazetidin-1-yl)-2-rnethylpropyl)-6-(3-((1S,4R)-4-((3-(2-methoxypropan-2-yl)-[1,2,4]triazolo[4,3-a]pyridin-6-yl)oxy)-1,2,3,4-tetrahydronaphthalen-1-yl)ureido)pyrimidine-2-carboxamide] | 1 to 10 |
| COCCN(C)C(C)(C)CNC(=O)c1nc(NC(=O)N[C@H]2CC[C@@H](Oc3ccc4nnc(C(C)(C)C)n4c3)c3ccccc32)cc(C(C)(C)C)n1 [Example 177, 4-(tert-butyl)-6-(3-((1S,4R)-4-((3-(tert-butyl)-[1,2,4]triazolo[4,3-a]pyridin-6-yl)oxy)-1,2,3,4-tetrahydronaphthalen-1-yl)ureido)-N-(2-((2-methoxyethyl)(methyl)-amino)-2-methylpropyl)pyrimidine-2-carboxamide] | 1 to 10 |
| COCCN(C)C(C)(C)CNC(=O)c1nc(NC(=O)N[C@H]2CC[C@@H](Oc3ccc4nnc(C(C)(C)OC)n4c3)c3ccccc32)cc(C(C)(C)C)n1 [Example 179, 4-(tert-butyl)-N-(2-((2-methoxyethyl)(methyl)amino)-2-methylmpropyl)-6-(3-((1S,4R)-4-((3-(2-methoxypropan-2-yl)-[1,2,4]triazolo[4,3-a]pyridin-6-yl)oxy)-1,2,3,4-tetrahydronaphthalen-1-yl)ureido)pyrimidine-2-carboxamide] | 1 to 10 |
| CCOC(C)(C)c1nnc2ccc(O[C@@H]3CC[C@H](NC(=O)Nc4cc(C(C)(C)C)nc(C(=O)NCCN(C)C)n4)c4ccccc43)cn12 [Example 180, 4-(tert-Butyl)-N-(2-(dimethylamino)ethyl)-6-(3-((1S,4R)-4-((3-(2-ethoxypropan-2-yl)-[1,2,4]triazolo[4,3-a]pyridin-6-yl)oxy)-1,2,3,4-tetrahydronaphthalen-1-yl)ureido)pyrimidine-2-carboxamide formate salt] | 1 to 10 |
| COC(C)(C)c1nnc2ccc(O[C@@H]3CC[C@H](NC(=O)Nc4cc(C(=O)NCCN(C)C)nc(C(C)(C)C)c4)c4ccccc43)cn12 [Example 185, 6-(tert-butyl)-N-(2-(dimethylamino)ethyl)-4-(3-((1S,4R)-4-((3-(2-methoxypropan-2-yl)-[1,2,4]triazolo[4,3-a]pyridin-6-yl)oxy)-1,2,3,4-tetrahydronaphthalen-1-yl)ureido)picolinamide] | 1 to 10 |
